# Experimental data published in patent publication US12338262B2 (Forward Therapeutics, Inc., priority 2022, dated 2025).
# Target: TNF-α (Homo sapiens, UniProt P01375)
# Experiment: TNF-α Induced HEK Blue Cellular Assay
# Type: cell-based
# Details: HEK Blue TNFα reporter cells, TNF-α 100 pg/ml, 24 hrs at 37° C., secreted alkaline phosphatase (QUANTI-Blue, 620 nm)
# Outline: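 Read-out is SEAP via QUANTI-Blue absorbance at 620 nm after a 24 h, 37 °C incubation of reporter HEK Blue cells with 100 pg/ml TNF-α plus compound at final […]–0.5 nM. Percent inhibition normalised to DMSO ± stimulation; 4-parameter logistic fit gives IC50.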
# Sequence of TNF-α (P01375 77-233 limits assumed): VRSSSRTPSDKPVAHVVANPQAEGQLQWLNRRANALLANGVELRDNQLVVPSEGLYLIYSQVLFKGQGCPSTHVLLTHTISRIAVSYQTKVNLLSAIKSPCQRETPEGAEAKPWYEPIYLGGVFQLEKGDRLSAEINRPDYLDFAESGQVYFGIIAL
row,SMILES,IC50 [nM]
1,"Cc1nc2cc(F)c(-c3cnc(P(C)(C)=O)c(F)c3)nc2c(N[C@H](C)c2cc(F)cc(F)c2)c1Cl [Example 128, 3-chloro-N-[(1R)-1-(3,5-difluorophenyl)ethyl]-6-[6-(dimethylphosphoryl)-5-fluoropyridin-3-yl]-7-fluoro-2-methyl-1,5-naphthyridin-4-amine]",10000 to 30000
2,"Cc1nc2cc(F)c(-c3cnc(P(C)(C)=O)c(F)c3)cc2c(N[C@H](C)c2cc(F)cc(F)c2)c1Cl [Example 129, 3-chloro-N-[(1R)-1-(3,5-difluorophenyl)ethyl]-6-[6-(dimethylphosphoryl)-5-fluoropyridin-3-yl]-7-fluoro-2-methylquinolin-4-amine]",10000 to 30000
3,"Cc1nc2cc(F)c(-c3ccc(P(C)(C)=O)nc3)nc2c(N[C@H](C)c2cccc(F)c2F)c1C1CC1 [Example 134, 3-cyclopropyl-N-[(1R)-1-(2,3-difluorophenyl)ethyl]-6-[6-(dimethylphosphoryl)pyridin-3-yl]-7-fluoro-2-methyl-1,5-naphthyridin-4-amine]",1000 to 10000
4,"Cc1nc2cc(F)c(-c3ccc(P(C)(C)=O)nc3)nc2c(N[C@H](c2ccccc2)C2CC2)c1Cl [Example 140, 3-chloro-N—[(S)-cyclopropyl(phenyl)methyl]-6-[6-(dimethylphosphoryl)pyridin-3-yl]-7-fluoro-2-methyl-1,5-naphthyridin-4-amine]",≤ 1000
5,"Cc1nc2cc(F)c(-c3ccc(P4(=O)CCOCC4)nc3)nc2c(N[C@H](C)c2cc(C#N)ccc2F)c1Cl [Example 141, 3-[(1R)-1-({3-chloro-7-fluoro-2-methyl-6-[6-(4-oxo-1,4lambda5-oxaphosphinan-4-yl)pyridin-3-yl]-1,5-naphthyridin-4-yl}amino)ethyl]-4-fluorobenzonitrile]",1000 to 10000
6,"Cc1nc2cc(F)c(-c3ccc(P(C)(C)=O)nc3)nc2c(NC(c2cccc(F)c2F)C(C)(F)F)c1Cl (stereo not shown) [Example 142, 3-chloro-N-[1-(2,3-difluorophenyl)-2,2-difluoropropyl]-6-[6-(dimethylphosphoryl)pyridin-3-yl]-7-fluoro-2-methyl-1,5-naphthyridin-4-amine]",1000 to 10000
7,"Cc1nc2cc(F)c(-c3ccc(P4(=O)CCOCC4)nc3)nc2c(N[C@H](C)c2cccc(F)c2F)c1Cl [Example 143, 4-[5-(7-chloro-8-{[(1R)-1-(2,3-difluorophenyl)ethyl]amino}-3-fluoro-6-methyl-1,5-naphthyridin-2-yl)pyridin-2-yl]-1,4lambda5-oxaphosphinan-4-one]",10000 to 30000
8,"Cc1nc2cc(F)c(-c3ccc(P(C)(C)=O)nc3)nc2c(N[C@H](C)c2cccc(F)c2F)c1C#N [Example 144, 4-{[(1R)-1-(2,3-difluorophenyl)ethyl]amino}-6-[6-(dimethylphosphoryl)pyridin-3-yl]-7-fluoro-2-methyl-1,5-naphthyridine-3-carbonitrile]",10000 to 30000
9,"Cc1nc2cc(F)c(-c3ccc(P(C)(C)=O)nc3)nc2c(N[C@H](c2cccc(F)c2F)C(F)F)c1Cl [Example 146, (R)-(5-(7-chloro-8-((1-(2,3-difluorophenyl)-2,2-difluoroethyl)amino)-3-fluoro-6-methyl-1,5-naphthyridin-2-yl)pyridin-2-yl)dimethylphosphine oxide]",1000 to 10000
10,"CC[C@@H](Nc1c(Cl)c(C)nc2cc(F)c(-c3ccc(P(C)(C)=O)nc3)nc12)c1cc(F)cc(F)c1 [Example 147, 3-chloro-N-[(1R)-1-(3,5-difluorophenyl)propyl]-6-[6-(dimethylphosphoryl)pyridin-3-yl]-7-fluoro-2-methyl-1,5-naphthyridin-4-amine]",1000 to 10000
11,"CC[C@H](Nc1c(Cl)c(C)nc2cc(F)c(-c3ccc(P(C)(C)=O)nc3)nc12)c1cc(F)cc(F)c1 [Example 148, 3-chloro-N-[(1S)-1-(3,5-difluorophenyl)propyl]-6-[6-(dimethylphosphoryl)pyridin-3-yl]-7-fluoro-2-methyl-1,5-naphthyridin-4-amine]",1000 to 10000
12,"CCC(Nc1c(Cl)c(C)nc2cc(F)c(-c3ccc(P(C)(C)=O)nc3)nc12)c1ccn(C)n1 (stereo not shown) [Example 149, 3-chloro-6-[6-(dimethylphosphoryl)pyridin-3-yl]-7-fluoro-2-methyl-N-[1-(1-methylpyrazol-3-yl)propyl]-1,5-naphthyridin-4-amine]",10000 to 30000

# Further lines, results first:
row,IC50 [nM],SMILES
1,≤ 100,"Cc1nc2cc(F)c(-c3cnc(OCP(C)(C)=O)nc3)nc2c(N[C@H](C)c2cc(C#N)ccc2F)c1Cl [Example 121, 3-[(1R)-1-[(3-chloro-6-{2-[(dimethylphosphoryl)methoxy]pyrimidin-5-yl}-7-fluoro-2-methyl-1,5-naphthyridin-4-yl)amino]ethyl]-4-fluorobenzonitrile]"
2,≤ 100,"Cc1nc2cc(F)c(-c3ccc(P(C)(C)=O)nc3)nc2c(N[C@@H](C)c2nc(C#N)ccc2F)c1Cl [Example 122, 6-[(1S)-1-({3-chloro-6-[6-(dimethylphosphoryl)pyridin-3-yl]-7-fluoro-2-methyl-1,5-naphthyridin-4-yl}amino)ethyl]-5-fluoropyridine-2-carbonitrile]"
3,≤ 1000,"Cc1nc2cc(F)c(-c3ccc(P(C)(C)=O)nc3)nc2c(N[C@H](C)c2nc(C#N)ccc2F)c1Cl [Example 123, 6-[(1R)-1-({3-chloro-6-[6-(dimethylphosphoryl)pyridin-3-yl]-7-fluoro-2-methyl-1,5-naphthyridin-4-yl}amino)ethyl]-5-fluoropyridine-2-carbonitrile]"
4,≤ 1000,"Cc1nc2cc(F)c(-c3cnc(OCP(C)(C)=O)nc3)nc2c(N[C@H](C)c2cccc(F)c2F)c1Cl [Example 124, 3-chloro-N-[(1R)-1-(2,3-difluorophenyl)ethyl]-6-{2-[(dimethylphosphoryl)methoxy]pyrimidin-5-yl}-7-fluoro-2-methyl-1,5-naphthyridin-4-amine]"
5,≤ 1000,"CC[C@@H](Nc1c(Cl)c(C)nc2cc(F)c(-c3cnc(OCP(C)(C)=O)nc3)nc12)c1cccc(F)c1F [Example 125, 3-chloro-N-[(1R)-1-(2,3-difluorophenyl)propyl]-6-{2-[(dimethylphosphoryl)methoxy]pyrimidin-5-yl}-7-fluoro-2-methyl-1,5-naphthyridin-4-amine]"
6,≤ 100,"CC[C@H](Nc1c(Cl)c(C)nc2cc(F)c(-c3cnc(OCP(C)(C)=O)nc3)nc12)c1cccc(F)c1F [Example 126, 3-chloro-N-[(1S)-1-(2,3-difluorophenyl)propyl]-6-{2-[(dimethylphosphoryl)methoxy]pyrimidin-5-yl}-7-fluoro-2-methyl-1,5-naphthyridin-4-amine]"
7,≤ 1000,"CC[C@H](Nc1c(Cl)c(C)nc2cc(F)c(-c3cnc(P(C)(C)=O)nc3)nc12)c1cccc(F)c1F [Example 127, 3-chloro-N-[(1S)-1-(2,3-difluorophenyl)propyl]-6-[2-(dimethylphosphoryl)pyrimidin-5-yl]-7-fluoro-2-methyl-1,5-naphthyridin-4-amine]"
8,≤ 1000,"Cc1nc2cc(F)c(-c3ccc(P(C)(C)=O)nc3)nc2c(N[C@H](C)c2cc(F)cc(Cl)c2)c1Cl [Example 130, 3-chloro-N-[(1R)-1-(3-chloro-5-fluorophenyl)ethyl]-6-[6-(dimethylphosphoryl)pyridin-3-yl]-7-fluoro-2-methyl-1,5-naphthyridin-4-amine]"
9,≤ 1000,"Cc1nc2cc(F)c(-c3cnc(P(C)(C)=O)nc3)nc2c(N[C@H](C)c2cc(C#N)cc(F)c2F)c1Cl [Example 131, 3-[(1R)-1-({3-chloro-6-[2-(dimethylphosphoryl)pyrimidin-5-yl]-7-fluoro-2-methyl-1,5-naphthyridin-4-yl}amino)ethyl]-4,5-difluorobenzonitrile]"
10,≤ 1000,"CC[C@H](Nc1c(Cl)c(C)nc2cc(F)c(-c3cnc(P(C)(C)=O)nc3)nc12)c1ncccc1F [Example 132, 3-chloro-6-[2-(dimethylphosphoryl)pyrimidin-5-yl]-7-fluoro-N-[(1S)-1-(3-fluoropyridin-2-yl)propyl]-2-methyl-1,5-naphthyridin-4-amine]"
11,≤ 100,"Cc1nc2cc(F)c(-c3ccc(P(C)(C)=O)nc3)nc2c(N[C@H](C)c2cccc(F)c2F)c1C [Example 133, N-[(1R)-1-(2,3-difluorophenyl)ethyl]-6-[6-(dimethylphosphoryl)pyridin-3-yl]-7-fluoro-2,3-dimethyl-1,5-naphthyridin-4-amine]"
12,≤ 100,"Cc1nc2cc(F)c(-c3cnc(P(C)(C)=O)c(F)c3)cc2c(N[C@H](C)c2cccc(F)c2F)c1Cl [Example 135, 3-chloro-N-[(1R)-1-(2,3-difluorophenyl)ethyl]-6-[6-(dimethylphosphoryl)-5-fluoropyridin-3-yl]-7-fluoro-2-methylquinolin-4-amine]"
13,≤ 1000,"Cc1nc2cc(F)c(-c3ccc(P(C)(C)=O)nc3)nc2c(NC(c2ncccc2F)C2CC2)c1Cl (stereo not shown) [Example 136, 3-chloro-N-[cyclopropyl(3-fluoropyridin-2-yl)methyl]-6-[6-(dimethylphosphoryl)pyridin-3-yl]-7-fluoro-2-methyl-1,5-naphthyridin-4-amine]"
14,≤ 1000,"Cc1nc2cc(F)c(-c3ccc(P(C)(C)=O)nc3)nc2c(N[C@@H](c2ccccc2)C2CC2)c1Cl [Example 137, 3-chloro-N—[(R)-cyclopropyl(phenyl)methyl]-6-[6-(dimethylphosphoryl)pyridin-3-yl]-7-fluoro-2-methyl-1,5-naphthyridin-4-amine]"
15,≤ 1000,"Cc1nc2cc(F)c(-c3ccc(P(C)(C)=O)nc3)nc2c(N[C@@H](c2cc(F)cc(F)c2)C2CC2)c1Cl [Example 138, 3-chloro-N—[(R)-cyclopropyl(3,5-difluorophenyl)methyl]-6-[6-(dimethylphosphoryl)pyridin-3-yl]-7-fluoro-2-methyl-1,5-naphthyridin-4-amine]"
16,≤ 1000,"Cc1nc2cc(F)c(-c3ccc(P(C)(C)=O)nc3)nc2c(N[C@H](c2cc(F)cc(F)c2)C2CC2)c1Cl [Example 139, 3-chloro-N—[(S)-cyclopropyl(3,5-difluorophenyl)methyl]-6-[6-(dimethylphosphoryl)pyridin-3-yl]-7-fluoro-2-methyl-1,5-naphthyridin-4-amine]"
